Results reported in patent US11986482B2, “Method of promoting antitumor or anti-cancer immunity” (City University of Hong Kong, priority 2021, dated 2024).
Entries after “also recorded” stand apart in the source; their conditions may differ.

Tests used:
HeLa cells = assay: DQ-BSA endocytic trafficking assay; type: cell-based; settings: 1 μM, 3 h then 6 h with 10 μg/ml DQ-green BSA, flow cytometry
Method: A DQ-BSA endocytic trafficking assay screens these compounds. DQ-BSA, a self-quenching dye, is internalized into the cytoplasm by endocytosis, after which it is delivered to the lysosomes for degradation to relieve fluorescence-quenching, resulting in bright fluorescence in cells. HeLa cells are plated on 6-well plates and treated with the indicated compound for 3 h. Then, cells are replaced with Trafficking media containing 10 μg/ml DQ-green BSA with or without drugs (1 μM) and incubated at 37° C. in a 5% CO2 humidified cell culture chamber another 6 h followed by Flow cytometry analysis. […] Inventors also test whether these hit compounds can inhibit the recycling endosomal pathway by performing the fluorescent transferrin conjugates recycling assay. Iron-bound transferrin interacts with its receptor (TfR) to trigger the internalization of the iron-transferrin-TfR complex via clathrin-mediated endocytosis. Fe^3+ irons are subsequently dissociated from their ligands in the acidic endosome environment and released into the cytoplasm. […] Thus, the fluorescence intensity of fluorescent transferrin conjugates-labeled cells can reflect the recycling endocytic trafficking process. […] Cells are collected for flow cytometry analysis, and the mean fluorescence intensity of transferrin is quantified.

EGFR = EGFR degradation assay (EGF-488); type: cell-based; settings: HeLa cells, 6J1 1 μM 3 h, EGF-488 2 μg/ml, 2 h of EGF treatment
Method: Furthermore, HeLa cells are pretreated with DMSO or 6J1 (1 μM) for 3 h. Then, cells are incubated with EGF-488 (2 μg/ml) on ice for 1 h followed by incubating in the complete medium at 37° C. in a CO2 incubator. Cells are fixed at the indicated times and imaged.

4T1 primary tumors = assay: Chemokine levels in microenvironment of 4T1 primary tumors; type: in vivo, mouse; settings: 4T1 tumors isolated at end of experiment
Method: Inventors further measure the chemokines or cytokines in these primary tumor tissues. The tumors are isolated at the end of experiments, and the chemokine levels in the microenvironment of 4T1 primary tumors treated with the vehicle or 6J1 are determined by Flow cytometry-based quantification. In FIGS. 9a-9c, data are reported in μg/ml, standardized to the excised tumor weight (in grams); each dot represents one mouse.

Raw246.7 cells = assay: Chemokine level in supernatant of Raw246.7 cells; type: cell-based; settings: in vitro, 1 μM
PD-L1-knockout 4T1 cells = assay: PD-L1-knockout 4T1 tumors in Balb/c mice; type: in vivo, mouse; settings: 30 mg/kg, daily, oral gavage
Method: To assess whether the in vivo antitumor growth effect of 6J1 is related to its effect on PD-L1 in 4T1 cells, inventors knock out PD-L1 via CRISPR/Cas9 in 4T1 cells (FIG. 10a). 4T1-NC or 4T1-PD-L1 knockout cells are treated with or without 6J1 (1 μM) for 24 h. The supernatant is collected, and the concentration of extracellular vesicle is determined using a Nanosight nanoparticle analyzer. The exosomes are also collected and subjected to western blot analysis of the EVs marker and PD-L1. […] Inventors then transplant control or PD-L1-knockout 4T1 cells into the fat pad of syngeneic female Balb/c mice. The mice are randomly divided (n=5 per group) and treated with either buffer or 6J1 (30 mg/kg, daily) via oral gavage.

[1] = system: Rab27a-knockout 4T1 cells; assay: 4T1-shRab27A (Rab27a-knockout) orthotopic tumors in Balb/c mice; type: in vivo, mouse
Method: Therefore, it is possible that the increased exosomal PD-L1 secretion induced by 6J1 may still suppress the tumor-infiltrating T cell cytotoxicity in vivo, even though 6J1 reduces the cell surface expression level of PD-L1 on the tumor cells. To evaluate the role of exosomal PD-L1 in the tumor microenvironment and tumor progression in mice, inventors knock out Rab27a in 4T1 cells to inhibit the secretion of exosomes. 4T1-shNC or 4T1-shRab27A cells are treated with or without 6J1 (1 μM). The supernatant is collected, and the concentration of extracellular vesicle is determined using a Nanosight nanoparticle analyzer. […] Inventors analyze the plasma membrane levels of PD-L1 in 4T1-shNC or 4T1-shRab27A cells treated with or without 6J1 (1 μM). […] Next, control or Rab27a-knockout 4T1 cells are orthotopically transplanted into syngeneic fat pads of female Balb/c. The mice are randomly divided (n=5 per group) and treated with either buffer or 6J1 (30 mg/kg, daily) via oral gavage. […] Inventors also perform the immunostaining of CD8 and Granzyme B in the tumor sections. […] Since enhanced antitumor immunity leads to increased apoptosis in tumors, inventors assess the levels of cleaved caspase3 (CCA3), one of the markers of apoptosis, in tumor sections as well.

[2] = Rab27a-knockout 4T1 cells, 6J1 30 mg/kg, daily, oral gavage
[3] = Rab27a-knockout 4T1 cells, 6J1 30 mg/kg, daily, oral gavage, 30 mg/kg

`OCCOCCN(c1ccccc1)c1nc(N/N=C/c2cccc(I)c2)nc(N2CCOCC2)n1` [Compound 6J1] was tested, and the “endocytic trafficking (fluorescence intensity of DQ-BSA-labeled cells)” value (HeLa cells) was “dramatically inhibit endocytic trafficking”, the EGFR degradation (EGFR) was “blocks the EGFR degradation” and the “secretion of chemokines CCL2, CCL3, CCL4, CXCL9 in tumor microenvironment” value (4T1 primary tumors) was “significantly increases the secretion of some chemokines”. The “secretion of chemokines CCL5, CCL11, CCL17, CCL22, CXCL1, CXCL5, CXCL10, CXCL13 in tumor microenvironment” value (4T1 primary tumors) was “little or only subtle effects on others; also recorded: little or only subtly effects on others”, the “secretion of various chemokines from Raw246.7 cells” value (Raw246.7 cells) was “markedly induces the secretion of various chemokines” and the “tumor growth in mice implanted with PD-L1-knockout 4T1 cells” value (PD-L1-knockout 4T1 cells) was “fails to decrease further tumor growth”. The “activated tumor-infiltrating CD8+ T cell population and expression of IFN-γ vs other groups” value [1, 2] was “significantly increased”, the “tumor growth and tumor burden vs other groups” value [1, 2] was “significantly smaller” and the “cleaved caspase3 (CCA3) apoptotic signals in tumors vs other groups” value [1, 3] was “Stronger clustered apoptotic signals”. The “infiltrated CD8+ T cells in tumor sections (immunostaining) vs other groups” value [1, 3] was “More infiltrated CD8+ T cells are detected; also recorded: more infiltrated CD8^+ T cells are detected” and the “overall survival of mice bearing orthotopic 4T1 tumors vs other groups” value ([1]; combination of Rab27a knockout and 6J1 treatment) was “substantially prolongs the overall survival”.
